Reference: US20130310355A1, “LOW TOXICITY TOPICAL ACTIVE AGENT DELIVERY SYSTEM” (YOUNG PHARMACEUTICALS, INC., priority 2009, published 2013)

Test: Solubilization of retinol in cyclomethicone alone
Assay type: physicochemical
Conditions: retinol 0.1-0.2% w/v in cyclomethicone alone
Excerpt: Volatile organosiloxanes optionally are lightweight carriers that evaporate on application and thus have an elegant, light-weight “feel” on the skin. Volatile organosiloxanes, however, are typically limited in their ability to dissolve low polarity (i.e. usually greater than C7-C8)) organic compounds like retinoids. […] To address this issue vehicles were sought that would be both capable of creating clear solutions of active agent in a volatile organosiloxane carrier, but also have an appropriate evaporation rate in combination with the volatile organosiloxane when placed on the skin so as maintain the light-weight feel on the skin experienced by a user. A vehicle must also not promote unacceptable skin irritation when used at the concentration necessary in the composition.

For `CC1=C(/C=C/C(C)=C/C=C/C(C)=C/CO)C(C)(C)CCC1` [retinol], the Appearance of solution was “hazy solutions”.
